Where “and” joins values, the source holds several entries; their conditions need not be identical. Equal entries are not always repeated.
System: BDF1 mice, Adenocarcinoma 755 s.c., tumor weight T/C
Experiment: NCI In Vivo Anticancer Drug Screen. Data for tumor model Adenocarcinoma 755 (subcutaneous) in B6D2F1 (BDF1) mice
Conditions: endpoint: mean tumor weight, higher = larger tumour
How it was run: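 Tumor-bearing mice receive test compound while controls get vehicle alone. Antitumor effect is scored from survival or tumor dimensions as a T/C quotient.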

[1] = dose: 400.0 mg/kg/injection, schedule: Q01DX011 (ip), vehicle: other
[2] = dose: 1.0 mg/kg/injection, schedule: Q01DX011 (ip), vehicle: carboxymethylcellulose (CMC)
[3] = dose: 4.0 mg/kg/injection, schedule: Q01DX011 (ip), vehicle: carboxymethylcellulose (CMC)

With CC(C)Cn1cnc2c(SCCc3ccccc3)nc(N)nc21 the T/C (dose: 75.0 mg/kg/injection, schedule: Q01DX011 (ip), vehicle: methylcellulose (MC)) was 52 % of control, the T/C (dose: 150.0 mg/kg/injection, schedule: Q01DX011 (ip), vehicle: methylcellulose (MC)) was 34 % of control and the T/C (dose: 300.0 mg/kg/injection, schedule: Q01DX011 (ip), vehicle: methylcellulose (MC)) was 3 % of control.
For CC1C[C@@H]2[C@H]([C@@H](O)C[C@@]3(C)[C@H]2CC[C@]3(O)C(=O)CF)[C@@]2(C)CCC(=O)C=C12 (some centres undefined), the T/C (dose: 1.2 mg/kg/injection, schedule: Q01DX011 (sc), vehicle: steriod suspending solution) was 108 % of control, the T/C (dose: 2.5 mg/kg/injection, schedule: Q01DX011 (sc), vehicle: steriod suspending solution) was 92 % of control and the T/C (dose: 8.0 mg/kg/injection, schedule: Q01DX011 (sc), vehicle: steriod suspending solution) was 82 % of control. For the same molecule, the T/C (dose: 10.0 mg/kg/injection, schedule: Q01DX011 (sc), vehicle: steriod suspending solution) was 35 % of control, the T/C (dose: 16.0 mg/kg/injection, schedule: Q01DX011 (sc), vehicle: steriod suspending solution) was 75 % of control and the T/C (dose: 20.0 mg/kg/injection, schedule: Q01DX011 (sc), vehicle: steriod suspending solution) was 30 % of control. For the same molecule, the T/C (dose: 32.0 mg/kg/injection, schedule: Q01DX011 (sc), vehicle: steriod suspending solution) was 55 % of control, the T/C (dose: 40.0 mg/kg/injection, schedule: Q01DX011 (sc), vehicle: steriod suspending solution) was 13 % of control and the T/C (dose: 170.0 mg/kg/injection, schedule: Q01DX011 (sc), vehicle: steriod suspending solution) was 5 % of control and 10 % of control. For the same molecule, the T/C (dose: 340.0 mg/kg/injection, schedule: Q01DX011 (sc), vehicle: steriod suspending solution) was 9 % of control and 13 % of control.
In the case of Nc1ccc2cc3ccccc3cc2c1, the T/C (dose: 10.0 mg/kg/injection, schedule: Q01DX011 (ip), vehicle: saline) was 80 % of control, the T/C (dose: 10.5 mg/kg/injection, schedule: Q01DX011 (ip), vehicle: carboxymethylcellulose (CMC)) was 62 % of control and the T/C (dose: 21.0 mg/kg/injection, schedule: Q01DX011 (ip), vehicle: carboxymethylcellulose (CMC)) was 40 % of control. The T/C (dose: 21.0 mg/kg/injection, schedule: Q01DX011 (ip), vehicle: saline) was 41 % of control, the T/C (dose: 42.0 mg/kg/injection, schedule: Q01DX011 (ip), vehicle: saline) was 37 % of control and the T/C (dose: 84.0 mg/kg/injection, schedule: Q01DX011 (ip), vehicle: saline) was 29 % of control.
For Cc1n[nH]c(=O)[nH]c1=O, the T/C [1] was 59 % of control and the T/C (dose: 800.0 mg/kg/injection, schedule: Q01DX011 (ip), vehicle: other) was 72 % of control.
COc1ccc2c3c([nH]c2c1)[C@H]1C[C@H]2[C@H](C[C@@H](O)[C@H](OC)[C@H]2CO)CN1CC3 was tested, and the T/C (dose: 0.5 mg/kg/injection, schedule: Q01DX011 (ip), vehicle: saline) was 91 % of control, the T/C (dose: 1.0 mg/kg/injection, schedule: Q01DX011 (ip), vehicle: saline) was 95 % of control and the T/C (dose: 2.0 mg/kg/injection, schedule: Q01DX011 (ip), vehicle: saline) was 92 % of control.
In the case of CCCCSc1ncnc2nc[nH]c12, the T/C (dose: 0.25 mg/kg/injection, schedule: Q01DX011 (ip), vehicle: carboxymethylcellulose (CMC)) was 119 % of control, the T/C [2] was 121 % of control and the T/C [3] was 62 % of control. The T/C (dose: 15.0 mg/kg/injection, schedule: Q01DX011 (ip), vehicle: carboxymethylcellulose (CMC)) was 4 % of control and 9 % of control and the T/C (dose: 62.0 mg/kg/injection, schedule: Q01DX011 (ip), vehicle: carboxymethylcellulose (CMC)) was 4 % of control.
With N#CCSc1ncnc2nc[nH]c12 the T/C (dose: 1.0 mg/kg/injection, schedule: Q01DX011 (im), vehicle: carboxymethylcellulose (CMC)) was 63 % of control, the T/C [2] was 54 % of control and the T/C (dose: 1.0 mg/kg/injection, schedule: Q01DX011 (iv), vehicle: carboxymethylcellulose (CMC)) was 79 % of control. For the same molecule, the T/C (dose: 1.0 mg/kg/injection, schedule: Q01DX011 (sc), vehicle: carboxymethylcellulose (CMC)) was 53 % of control, the T/C (dose: 2.0 mg/kg/injection, schedule: Q01DX011 (im), vehicle: carboxymethylcellulose (CMC)) was 9 % of control and the T/C (dose: 2.0 mg/kg/injection, schedule: Q01DX011 (ip), vehicle: carboxymethylcellulose (CMC)) was 14 % of control. The T/C (dose: 2.0 mg/kg/injection, schedule: Q01DX011 (iv), vehicle: carboxymethylcellulose (CMC)) was 28 % of control, the T/C (dose: 2.0 mg/kg/injection, schedule: Q01DX011 (sc), vehicle: carboxymethylcellulose (CMC)) was 10 % of control and the T/C (dose: 4.0 mg/kg/injection, schedule: Q01DX011 (im), vehicle: carboxymethylcellulose (CMC)) was 1 % of control. For the same molecule, the T/C [3] was 6 % of control, the T/C (dose: 8.0 mg/kg/injection, schedule: Q01DX011 (ip), vehicle: carboxymethylcellulose (CMC)) was 7 % of control and the T/C (dose: 8.0 mg/kg/injection, schedule: Q01DX011 (iv), vehicle: carboxymethylcellulose (CMC)) was 1 % of control. For the same molecule, the T/C (dose: 16.0 mg/kg/injection, schedule: Q01DX011 (ip), vehicle: carboxymethylcellulose (CMC)) was 3 % of control, the T/C (dose: 50.0 mg/kg/injection, schedule: Q03DX004 (ip), vehicle: carboxymethylcellulose (CMC)) was 2 % of control and the T/C (dose: 64.0 mg/kg/injection, schedule: Q01DX011 (ip), vehicle: carboxymethylcellulose (CMC)) was 2 % of control. For the same molecule, the T/C (dose: 100.0 mg/kg/injection, schedule: Q01DX001 (ip), vehicle: carboxymethylcellulose (CMC)) was 20 % of control, the T/C (dose: 100.0 mg/kg/injection, schedule: Q03DX004 (ip), vehicle: carboxymethylcellulose (CMC)) was 1 % of control and the T/C (dose: 100.0 mg/kg/injection, schedule: Q07DX002 (ip), vehicle: carboxymethylcellulose (CMC)) was 5 % of control. For the same molecule, the T/C (dose: 200.0 mg/kg/injection, schedule: Q01DX001 (ip), vehicle: carboxymethylcellulose (CMC)) was 20 % of control and the T/C (dose: 200.0 mg/kg/injection, schedule: Q07DX002 (ip), vehicle: carboxymethylcellulose (CMC)) was 3 % of control.
For CC(=O)O[C@]1(C(C)=O)CC[C@H]2[C@@H]3C[C@H](C)C4=CC(=O)CC[C@]4(C)[C@H]3CC[C@@]21C, the T/C (dose: 100.0 mg/kg/injection, schedule: Q01DX011 (sc), vehicle: steriod suspending solution) was 89 % of control and the T/C (dose: 300.0 mg/kg/injection, schedule: Q01DX011 (sc), vehicle: steriod suspending solution) was 78 % of control.
For NCC(N)=O, the T/C (dose: 100.0 mg/kg/injection, schedule: Q01DX011 (ip), vehicle: other) was 86 % of control, the T/C (dose: 200.0 mg/kg/injection, schedule: Q01DX011 (ip), vehicle: other) was 79 % of control and the T/C [1] was 56 % of control.
In the case of CC(=O)Nc1c(Cl)c(Cl)c2c(c1Cl)Cc1cc(Cl)ccc1-2, the T/C (dose: 27.0 mg/kg/injection, schedule: Q01DX011 (ip), vehicle: acetone) was 87 % of control, the T/C (dose: 55.0 mg/kg/injection, schedule: Q01DX011 (ip), vehicle: acetone) was 31 % of control and the T/C (dose: 110.0 mg/kg/injection, schedule: Q01DX011 (ip), vehicle: other) was 46 % of control. For the same molecule, the T/C (dose: 110.0 mg/kg/injection, schedule: Q01DX011 (ip), vehicle: saline) was 31 % of control, the T/C (dose: 225.0 mg/kg/injection, schedule: Q01DX011 (ip), vehicle: other) was 32 % of control and the T/C (dose: 225.0 mg/kg/injection, schedule: Q01DX011 (ip), vehicle: saline) was 8 % of control. The T/C (dose: 450.0 mg/kg/injection, schedule: Q01DX011 (ip), vehicle: other) was 19 % of control.
With Cc1cnc(SCc2ccc(Cl)cc2Cl)nc1Nc1ccc(Cl)c(Cl)c1 the T/C (dose: 15.0 mg/kg/injection, schedule: Q01DX011 (ip), vehicle: methylcellulose (MC)) was 74 % of control, the T/C (dose: 31.0 mg/kg/injection, schedule: Q01DX011 (ip), vehicle: methylcellulose (MC)) was 97 % of control and the T/C (dose: 62.0 mg/kg/injection, schedule: Q01DX011 (ip), vehicle: methylcellulose (MC)) was 69 % of control.
For ClCCn1cnc2c(SCc3ccccc3Cl)ncnc21, the T/C (dose: 0.5 mg/kg/injection, schedule: Q01DX011 (ip), vehicle: other) was 91 % of control, the T/C (dose: 0.5 mg/kg/injection, schedule: Q01DX011 (oral), vehicle: other) was 74 % of control and the T/C (dose: 1.0 mg/kg/injection, schedule: Q01DX011 (ip), vehicle: other) was 84 % of control. The T/C (dose: 2.0 mg/kg/injection, schedule: Q01DX011 (ip), vehicle: other) was 42 % of control and 47 % of control, the T/C (dose: 2.0 mg/kg/injection, schedule: Q01DX011 (oral), vehicle: other) was 109 % of control and the T/C (dose: 4.0 mg/kg/injection, schedule: Q01DX011 (oral), vehicle: other) was 75 % of control and 81 % of control. For the same molecule, the T/C (dose: 8.0 mg/kg/injection, schedule: Q01DX011 (ip), vehicle: other) was 3 % of control, the T/C (dose: 8.0 mg/kg/injection, schedule: Q01DX011 (oral), vehicle: other) was 25 % of control and 32 % of control and the T/C (dose: 15.0 mg/kg/injection, schedule: Q01DX011 (oral), vehicle: other) was 5 % of control and 13 % of control. For the same molecule, the T/C (dose: 30.0 mg/kg/injection, schedule: Q01DX011 (oral), vehicle: other) was 1 % of control and the T/C (dose: 100.0 mg/kg/injection, schedule: Q01DX011 (ip), vehicle: carboxymethylcellulose (CMC)) was 3 % of control.
In the case of N[C@@H](Cc1ccc(N(CCCl)CCCl)cc1)C(=O)O, the T/C (dose: 0.31 mg/kg/injection, schedule: Q01DX011 (ip), vehicle: carboxymethylcellulose (CMC)) was 66 % of control, the T/C (dose: 0.62 mg/kg/injection, schedule: Q01DX011 (ip), vehicle: carboxymethylcellulose (CMC)) was 101 % of control and the T/C (dose: 1.25 mg/kg/injection, schedule: Q01DX011 (ip), vehicle: carboxymethylcellulose (CMC)) was 59 % of control. The T/C (dose: 2.5 mg/kg/injection, schedule: Q01DX011 (ip), vehicle: carboxymethylcellulose (CMC)) was 29 % of control.

Source: PubChem BioAssay AID180 (DTP/NCI, 2004)
